Drawing on PubChem BioAssay (NCI), this text covers TGI and GI50 for eight compounds.

Assay in all cases: NCI-60 cell line screen, 48 h
Test [1] deals with M14 melanoma.
In test [2] the test system is HCT-116 colon.
The test system of test [3] is SF-295 CNS.
In test [4] the test system is HL-60(TB) leukemia.
Test [5] concerns BT-549 breast.
In test [6] the test system is UACC-257 melanoma.
Test [7] deals with A498 renal.
Test [8] has as its system HCT-15 colon.
Test [9] relates to SK-OV-3 ovarian.
The subject of test [10] is SK-MEL-28 melanoma.

“And” between values parts separate entries of the source, which are not always exact repeats. Identical values can stand only once.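 Briefly, cells in 96-well plates were exposed to five compound concentrations for 48 h, and endpoints were estimated by linear interpolation. The concentration for 50% growth inhibition is given as GI50. At the TGI there is no net growth.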

As for `Nc1ncnc2c1ccn2C1OC2COP(=O)(O)OC2C1O` (stereo not drawn), the TGI is 1.54 µM in [1]; 10.4 µM in [2]; 29.5 µM in test [3]; greater than 23.2 µM in test [4]; 24 µM in [5]; 9.11 µM in [6]. The TGI was found to be 28.2 µM in test [7], 3.11 µM in test [8], 24.5 µM in [9] and 14.2 µM in test [10].
For `C=C(C)[C@@H]1CC=C(CO)CC1`, the GI50 in test [1], in [2], in test [3], in test [4], in [6] and in [7] was greater than 10 µM throughout. Besides, the GI50 in test [8], in test [9] and in test [10] was greater than 10 µM throughout. The TGI is > 10 µM and 1410 µM in test [1]; > 10 µM and 627 µM in [2]; > 10 µM and 941 µM in test [3]; > 10 µM and 267 µM in test [4]; greater than 10 µM in test [5]; > 10 µM and 1150 µM in test [6]. The TGI in test [7] was > 10 µM and 1170 µM; in test [8], > 10 µM and 790 µM; in test [9], > 10 µM and 2570 µM; in test [10], > 10 µM and 829 µM.
Take `COc1cc2cc(Oc3ccc(NC(=O)Nc4ccc(Cl)c(C(F)(F)F)c4)cc3)c(C)nc2cc1OCCN1CCCCC1`: the GI50 in [1] was 1.92 µM; in test [2], 1.54 µM; in test [3], 1.81 µM; in test [4], 1.87 µM; in [5], 1.79 µM; in test [6], 1.79 µM. For the same compound, the GI50 in [7] is 1.24 µM; in test [8] it was 1.25 µM; in test [9] it was 2.28 µM; in test [10], 1.79 µM. Further, the TGI was 3.78 µM in [1]; 2.98 µM in test [2]; 3.3 µM in test [3]; 3.53 µM in test [4]; 3.45 µM in [5]; 3.46 µM in [6]. The TGI in test [7] is 2.58 µM; in [8] it was 2.59 µM; in [9] it was 3.93 µM; in test [10] it was 3.23 µM.
Turning to `O=C(CCl)c1ccc([N+](=O)[O-])o1`, the GI50 in [1] was 2.18 µM; in test [2], 0.519 µM; in test [3], 5.26 µM; in test [4] it was 1.64 µM; in test [5], 2.24 µM; in [6], 1.83 µM. The GI50 is 13.6 µM in test [7], 1.61 µM in [8], 14.9 µM in test [9] and 1.61 µM in [10]. Further, the TGI in [1] turned out to be 5.06 µM; in test [2], 2.4 µM; in test [3], 17.4 µM; in test [5] it was 6.85 µM; in test [6], 3.93 µM; in test [7], 27.5 µM. Besides, the results for the TGI in test [8], in test [9] and in [10] were 3.22 µM, 30.5 µM and 3.14 µM, respectively.
As for `N#CSc1ncnc2nc[nH]c12`, the GI50 in test [1] is 1.78 µM; in [2], 3.04 µM; in [3] it was 2.53 µM; in test [4], 5.5 µM; in [5] it was greater than 28.7 µM; in test [6] it was 26.2 µM. Also, the GI50 in test [7] was 24.1 µM; in test [8] it was 8.82 µM; in test [9] it was 2.42 µM; in test [10], 44.4 µM. In addition, the TGI in [1] is greater than 100 µM; in test [2] it was greater than 100 µM; in test [3], greater than 72.6 µM; in test [4] it was greater than 100 µM; in test [5] it was greater than 100 µM; in test [6] it was greater than 100 µM. The TGI in [7], in test [8], in [9] and in test [10] was greater than 100 µM each time.
`O=C(CCN1CCCC1)Nc1ccc2c(NCc3ccc(F)cc3)c3ccccc3nc2c1`: the GI50 in [1] is 1.07 µM; in test [2] it was 0.313 µM; in test [3], 0.59 µM; in [4], 0.55 µM; in test [5], 1.2 µM; in [6] it was 1.74 µM. Also, the GI50 in test [7] is 0.733 µM; in [8], 1.53 µM; in [9] it was 0.849 µM; in [10], 1.47 µM. Moreover, the TGI in test [1] turned out to be 2.4 µM; in test [2], 1.35 µM; in test [3], 2.03 µM; in test [4], 2.34 µM; in [5] it was 2.67 µM; in [6], 3.54 µM. For the same compound, the TGI worked out at 2.26 µM in test [7], 4.07 µM in test [8], 3.5 µM in [9] and 2.88 µM in [10].
As to `CC(C)(O)c1ccc(N2CCN(c3nnc(Cc4ccccc4)c4ccccc34)CC2)nc1`, the GI50 in test [1] is 8.86 µM; in test [2], 8.25 µM; in test [3], 4.16 µM; in test [4], 7.44 µM; in [5], 6.28 µM; in test [6], 8.59 µM. Besides, the GI50 in test [7] is 13.9 µM; in [8], 8.31 µM; in [9] it was 18.7 µM; in [10], 12 µM. For the same compound, the TGI worked out at 23 µM in [1]; 54.1 µM in [2]; 16.7 µM in [3]; 31.1 µM in [4]; 24 µM in [5]; 21.7 µM in test [6]. The TGI in test [7] amounted to 42.5 µM; in test [8], 28.7 µM; in [9], 61.9 µM; in test [10], 24.9 µM.
Turning to `CN(C)c1ccc2nc3ccc(=[N+](C)C)cc-3oc2c1`, the GI50 in test [1] is 0.959 µM; in test [2], 0.892 µM; in test [3] it was 3.74 µM; in [4] it was 0.269 µM; in [5], 11.2 µM; in [6], 0.697 µM. In addition, the GI50 in [7] was 13.7 µM; in test [8] it was 3.48 µM; in [9], 6.65 µM; in [10], 5.72 µM. The TGI stood at 3.77 µM in test [1]; 12.1 µM in test [2]; 22.5 µM in test [3]; 1.2 µM in test [4]; 74.2 µM in test [5]; 3.34 µM in test [6]. For the same compound, the TGI in [7] is 41.9 µM; in [8], greater than 100 µM; in test [9], 45.2 µM; in test [10], 45.7 µM.
